Measured values: PMC4870556, “Triazole resistance mediated by mutations of a conserved active site tyrosine in fungal lanosterol 14α-demethylase” (Scientific Reports, 2016)
Read-outs that look alike come from different tables or passages of the source.

How the values were obtained:
[1] = target: T1, ScErg11p6 × His Y140F (Saccharomyces cerevisiae, UniProt P10614, Y140F); assay: Type II difference spectra triazole binding to affinity purified Y140F mutant enzyme; conditions: for Hill number / IC50 / Kd: Y140F enzyme 1 μM; for IC50 / Kd: Hill equation fit; for IC50: IC50 value is denoted as [Azole]0.5; for Kd: standard error in brackets; for ΔAmax of type II difference spectra: Y140F enzyme, Ni-NTA affinity purified
T1 construct: full-length Saccharomyces cerevisiae hexahistidine-tagged Erg11p (ScErg11p6 × His); made in house; host or cells: Saccharomyces cerevisiae strain AD3ΔScErg11_Y140F (native ERG11 deleted)
Method: (§1) Ni-NTA affinity purified mutant and wild type ScErg11p6 × His preparations (1 μM) were used to detect and quantitate type II azole binding. The spectral shift of the Soret peak from 417 nm to 421–424 nm in cytochrome P450s is also detected by the type II difference spectra. This change is associated with the replacement of a water molecule coordinated to the heme iron with the azole heterocycle. Type II difference spectra were obtained for FLC, VCZ, ITC and PCZ binding to both mutant enzymes. The binding of FLC is shown as an example (Fig. 2b). The type II difference spectra for the mutant enzymes were less intense than for the wild type enzyme. They gave 2–3-fold smaller differences in absorbance (ΔAmax), with peaks shifted from 428 nm for wild type enzyme to 424–425 nm for the mutant enzymes plus less well-defined troughs between 406–410 nm (Supplementary Table S3). […] These values indicate tight binding for each drug tested.
(§2) The concentration of functional cytochrome P450 for drug binding studies was determined using the carbon monoxide binding spectra according to the protocol described by Guengerich et al.[33]. Affinity purified ScErg11p6 × His used for spectroscopic assays was eluted using affinity purification buffer containing 50 mM L-histidine instead of imidazole. L-histidine was removed from the sample by washing the enzyme with solubilisation buffer containing 16 mM DM using 50 kDa molecular-weight cut-off Amicon Ultra-4 centrifugal filters (Merck Millipore Ltd, Cork, Ireland). The removal of L-histidine was checked by taking the absolute spectra of the sample using the Ultrospec™ 6300 pro UV/Visible spectrophotometer. The heme peak for wild type protein with no ligand was at ~417 nm. With L-histidine bound the peak was detected at ~420 nm. Enzyme concentration was determined by saturating the sample cuvette with CO gas prior to the addition of sodium dithionite. The reference cuvette containing the same amount of enzyme was treated with sodium dithionite only. The P450 concentration was determined by measuring the difference in absorbance between 446 and 490 nm and using the extinction coefficient of 91 mM^−1 cm^−1 [58]. Absorption spectra were recorded with a Cary 1 Bio UV-visible spectrophotometer using 10 mm path UV transparent plastic cuvettes (GE Healthcare Life Sciences, UK). Difference spectra were measured using 1 μM ScErg11p6 × His wild type or Y140F/H enzyme titrated with the triazole drugs ITC, PCZ, VCZ and FLC. Triazole drugs dissolved in DMSO were added to the sample cuvette, with the same amount of DMSO added to the reference cuvette. The total amount of DMSO was <2% of the total volume in the cuvette. Difference spectra between 350–500 nm were recorded and the trough-peak absorbance changes were used to plot binding curves. The dissociation constant Kd for type II binding of triazole drugs was calculated using GraphPad Prism 6 Software (GraphPad Prism, San Diego, CA) by applying the Hill equation using the formula ΔA = ΔAmax [Azole]^n/([Azole]^n + Kd^n), with ΔAmax being the maximum change in absorbance and [Azole] the azole concentration.

[2] = target: T2, ScErg11p6 × His Y140H (Saccharomyces cerevisiae, UniProt P10614, Y140H); assay: Type II difference spectra triazole binding to affinity purified Y140H mutant enzyme; conditions: for Hill number / IC50 / Kd: Y140H enzyme 1 μM; for IC50 / Kd: Hill equation fit; for IC50: IC50 value is denoted as [Azole]0.5; for Kd: standard error in brackets; for ΔAmax of type II difference spectra: Y140H enzyme, Ni-NTA affinity purified
T2 construct: full-length Saccharomyces cerevisiae hexahistidine-tagged Erg11p (ScErg11p6 × His); made in house; host or cells: Saccharomyces cerevisiae strain AD3ΔScErg11_Y140H (native ERG11 deleted)
Method: as §1, §2

[3] = target: T3, wild type ScErg11p6 × His (Saccharomyces cerevisiae, UniProt P10614); assay: Type II difference spectra triazole binding to affinity purified wild type enzyme; conditions: for Hill number / IC50 / Kd: wild-type enzyme 1 μM; for IC50 / Kd: Hill equation fit; for IC50: IC50 value is denoted as [Azole]0.5; for Kd: standard error in brackets; for ΔAmax of type II difference spectra: wild-type enzyme, Ni-NTA affinity purified
T3 construct: full-length Saccharomyces cerevisiae hexahistidine-tagged Erg11p (ScErg11p6 × His); made in house; host or cells: Saccharomyces cerevisiae strain AD3ΔScErg11p (overexpression from the PDR5 locus, native ERG11 deleted)
Method: as §1, §2

[4] = tested on: AD3ΔScErg11p_Y140F; assay: Broth microdilution MIC80, strain overexpressing Y140F enzyme; type: cell-based, Saccharomyces cerevisiae; conditions: for fold lower susceptibility (MIC80) than strain overexpressing wild type ScErg11p6 × His: Y140F strain vs wild type strain
Method: (§3) Susceptibilities to triazole drugs of S. cerevisiae AD3Δ strains overexpressing Erg11p6 × His Y140F/H, but with the native ERG11 deleted, were measured as liquid MIC80 values (Supplementary Table S2). Overexpression of ScErg11p6 × His Y140F in the AD3ΔScErg11p_Y140F strain conferred 2-fold lower susceptibility to FLC than the strain overexpressing wild type ScErg11p6 × His i.e. MIC80 of 4.0 μg/ml and 2.1 μg/ml, respectively. The same mutant conferred a 1.7-fold reduction in susceptibility to VCZ. The MIC80 values were 0.42 μg/ml for the strain overexpressing ScErg11p6 × His Y140F and 0.25 μg/ml for the strain overexpressing wild type ScErg11p6 × His.
The S. cerevisiae AD2Δ host was used to create the strains used in this study. The strain was made by deletion of the HIS1 gene from the previously described ADΔ[49] strain. ADΔ and AD2Δ lack 7 major ATP-binding cassette transporters and the PDR3 gene. Both strains have the gain-of function pdr1–3 mutation in the PDR1 transcriptional regulator gene to provide constitutive overexpression of ScErg11p6 × His from the PDR5 locus. Yeast strains were grown on YPD medium: 1% (wt/vol) Bacto-yeast extract (BD Difco™ Laboratories Inc, Franklin Lakes, NJ), 2% (wt/vol) Bacto-peptone (BD Difco™) and 2% (wt/vol) glucose. Synthetic defined (SD) medium was used for selection of transformants. It contained 2% (wt/vol) glucose, 0.67% (wt/vol) yeast nitrogen base without amino acids (BD Difco™), 2% (wt/vol) agar (Oxoid Ltd., Hampshire, UK) and either uracil drop-out (Qbiogene, Irvine, CA) or histidine drop-out (Formedium™, Norfolk, UK) complete supplement mixture. Liquid SD media with complete supplement mixture (Formedium™) containing 10 mM MES and 20 mM HEPES buffered with TRIS to pH 6.8 was used for MIC80 determinations.
The susceptibilities of strains overexpressing wild type ScErg11p6 × His and ScErg11p6 × His Y140F/H to triazole drugs were measured as MIC80 values using broth microdilution assays. The MIC80s were defined as 80% growth inhibition compared to no drug controls because triazole drugs are fungistatic rather than fungicidal and can give trailing growth. MIC80s to FLC, ITC and VCZ were determined in 96-well microtiter plates using SD buffered to pH 6.8 instead of RPMI[50]. Cells were seeded at OD600nm = 0.005 (1.5 × 10^4 CFU) and the plates were incubated in 30 °C with shaking at 200 rpm for 48 hrs. Cell growth was assessed by measuring the OD600nm of wells using a BioTek Synergy™ 2 multi-mode plate reader (BioTek Instruments, Vermont, USA). Each MIC80 was determined using triplicate measurements for three clones of each strain in three separate experiments.

[5] = tested on: AD3ΔScErg11p (strain overexpressing wild type ScErg11p6 × His); assay: Broth microdilution MIC80, strain overexpressing wild type enzyme; type: cell-based; conditions: Saccharomyces cerevisiae, 48 h, pH 6.8
Method: as §3
The S. cerevisiae AD2Δ host was used to create the strains used in this study. The strain was made by deletion of the HIS1 gene from the previously described ADΔ[49] strain. ADΔ and AD2Δ lack 7 major ATP-binding cassette transporters and the PDR3 gene. Both strains have the gain-of function pdr1–3 mutation in the PDR1 transcriptional regulator gene to provide constitutive overexpression of ScErg11p6 × His from the PDR5 locus. Yeast strains were grown on YPD medium: 1% (wt/vol) Bacto-yeast extract (BD Difco™ Laboratories Inc, Franklin Lakes, NJ), 2% (wt/vol) Bacto-peptone (BD Difco™) and 2% (wt/vol) glucose. Synthetic defined (SD) medium was used for selection of transformants. […]
(§4) The susceptibilities of strains overexpressing wild type ScErg11p6 × His and ScErg11p6 × His Y140F/H to triazole drugs were measured as MIC80 values using broth microdilution assays. […] MIC80s to FLC, ITC and VCZ were determined in 96-well microtiter plates using SD buffered to pH 6.8 instead of RPMI[50]. […] Cell growth was assessed by measuring the OD600nm of wells using a BioTek Synergy™ 2 multi-mode plate reader (BioTek Instruments, Vermont, USA). Each MIC80 was determined using triplicate measurements for three clones of each strain in three separate experiments.

[6] = tested on: AD3ΔScErg11p_Y140H; assay: Broth microdilution MIC80, strain overexpressing Y140H enzyme; type: cell-based; conditions: Saccharomyces cerevisiae, 48 h, pH 6.8, 80% growth inhibition, SD medium pH 6.8, 30 °C, native ERG11 deleted
Method: as §3
The S. cerevisiae AD2Δ host was used to create the strains used in this study. The strain was made by deletion of the HIS1 gene from the previously described ADΔ[49] strain. […]
as §4

[7] = tested on: C. albicans Erg11p (CaErg11p) Y132F/H; conditions: Y132F/H mutations detected in clinical isolates; cited from earlier work
[8] = tested on: AfCYP51A; conditions: cited from earlier work
[9] = tested on: AfCYP51B; design: method as in PMID 26459890; conditions: membrane preparations, enzyme heterologously expressed in E. coli; cited from earlier work
[10] = target: AfCYP51A; design: method as in PMID 26459890; conditions: type II binding, cited from earlier work
[11] = target: AfCYP51B; design: method as in PMID 26459890; conditions: type II binding, Ni-NTA affinity purified enzyme; cited from earlier work
[12] = Saccharomyces cerevisiae, 48 h, pH 6.8

T1 sequence (P10614 whole entry Y140F): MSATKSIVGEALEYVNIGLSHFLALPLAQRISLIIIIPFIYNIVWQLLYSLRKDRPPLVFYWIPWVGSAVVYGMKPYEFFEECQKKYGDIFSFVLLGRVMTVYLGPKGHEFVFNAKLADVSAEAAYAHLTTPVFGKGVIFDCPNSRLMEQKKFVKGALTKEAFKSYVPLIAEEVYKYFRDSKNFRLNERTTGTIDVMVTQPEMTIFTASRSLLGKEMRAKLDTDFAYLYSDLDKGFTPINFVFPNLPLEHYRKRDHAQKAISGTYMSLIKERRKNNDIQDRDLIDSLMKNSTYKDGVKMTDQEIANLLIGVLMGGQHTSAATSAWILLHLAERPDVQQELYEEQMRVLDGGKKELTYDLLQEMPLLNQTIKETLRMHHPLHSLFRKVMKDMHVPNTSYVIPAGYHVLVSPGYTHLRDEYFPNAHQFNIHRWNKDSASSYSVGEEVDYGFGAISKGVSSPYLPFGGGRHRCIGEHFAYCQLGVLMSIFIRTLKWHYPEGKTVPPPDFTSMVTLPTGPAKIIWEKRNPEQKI
T2 sequence (P10614 whole entry Y140H): as the sequence (P10614 whole entry Y140F) above, with F140H counted along it
T3 sequence (P10614 whole entry): as the sequence (P10614 whole entry Y140F) above, with F140Y counted along it

SMILES | Hill number [1] | IC50 [1] | Kd [1] | ΔAmax of type II difference spectra [1] | Hill number [2] | IC50 [2] | Kd [2] | ΔAmax of type II difference spectra [2] | Hill number [3] | IC50 [3] | Kd [3] | ΔAmax of type II difference spectra [3] | MIC80 [5] | MIC80 [6] | MIC80 [4, 12] | fold lower susceptibility (MIC80) than strain overexpressing wild type ScErg11p6 × His [4] | other results
CC[C@@H]([C@H](C)O)n1ncn(-c2ccc(N3CCN(c4ccc(OC[C@@H]5CO[C@@](Cn6cncn6)(c6ccc(F)cc6F)C5)cc4)CC3)cc2)c1=O [PCZ, posaconazole] | 1.57 | 0.29 µM | 0.15 µM | 0.016 | 1.57 | 0.23 µM | 0.1 µM | 0.016 | 2.2 | 0.32 µM | 0.078 µM | 0.031 | – | – | – | – | –
CCC(C)n1ncn(-c2ccc(N3CCN(c4ccc(OCC5COC(Cn6cncn6)(c6ccc(Cl)cc6Cl)O5)cc4)CC3)cc2)c1=O (stereo not drawn) [ITC, itraconazole] | 1.83 | 0.33 µM | 0.13 µM | 0.014 | 1.48 | 0.25 µM | 0.13 µM | 0.016 | 1.6 | 0.28 µM | 0.123 µM | 0.037 | 0.105 µg/mL | – | – | – | MIC80 ([4]; 80% growth inhibition, SD medium pH 6.8, 30 °C, 48 hrs, native ERG11 deleted): 0.09 µg/mL; MIC80 ([4]; Saccharomyces cerevisiae, 80% growth inhibition, SD medium pH 6.8, 30 °C, 48 hrs, native ERG11 deleted, read-out: MIC80): 0.09 µg/mL
OC(Cn1cncn1)(Cn1cncn1)c1ccc(F)cc1F [FLC, fluconazole] | 1.86 | 0.33 µM | 0.13 µM | 0.023 | 1.68 | 0.27 µM | 0.11 µM | 0.016 | 3.0 | 0.43 µM | 0.074 µM | 0.048 | 2.1 µg/mL | 3.4 µg/mL | 4 µg/mL | 2 fold | fold increase in resistance [7]: 4 fold; IC50 ([8]; membrane preparations, enzyme heterologously expressed in E. coli): 17 µM; fold higher IC50 for AfCYP51A compared to AfCYP51B ([8]; reconstituted membrane assay): 34 fold; IC50 [9]: 0.5 µM; Kd ([10]; Ni-NTA affinity purified enzyme): 12 µM; fold difference in Kd values AfCYP51A vs AfCYP51B ([10]; Ni-NTA affinity purified enzymes): 3 fold; Kd [11]: 4 µM
C[C@@H](c1ncncc1F)[C@](O)(Cn1cncn1)c1ccc(F)cc1F [VCZ, voriconazole] | 2.60 | 0.27 µM | 0.03 µM | 0.019 | 1.23 | 0.29 µM | 0.22 µM | 0.018 | 2.7 | 0.4 µM | 0.082 µM | 0.051 | 0.25 µg/mL | 0.29 µg/mL | 0.42 µg/mL | 1.7 fold | –
